The source of these data is PMC11589458, “Development of bombesin-tubulysin conjugates using multicomponent chemistry to functionalize both the payload and the homing peptide” (Frontiers in Pharmacology, 2024).

In series [1] the test system is HCT-116 (colon cancer) cells. Briefly: Resazurin cell viability / anti-proliferation assay, HCT-116. In kind it is cell-based, human. The note with it: for fold higher IC50 in GRPR-lower expressing HCT-116 than in higher GRPR-expressing cancer cells: compared with T-47D (20) or T-47D and PC-3 (21); for IC50: HCT-116. Here is the method: (§1) [formula] Scheme 1 (A) Solid-phase synthesis of tubugi analogs functionalized with a thiol group at the internal amide N-substituent. WR = Wang resin. (B) Evaluation of the anti-proliferative activity: tubugi effects on cell viability, as determined by a resazurin assay for human prostate cancer PC-3 cells and human colon cancer HCT-116 cells treated for 48 h with tubugi 10a (red dots and line) and tubugi 10b (blue triangles and line). For control and data normalization, cells were routinely treated in parallel with 0.5% (v/v) DMSO (negative control), and as a positive cytotoxicity control with 100 µM digitonin (for data normalization set to 0% cell viability), both in standard growth medium.
(§2) The actual GRPR expression levels of these cell lines were checked by conducting RT-qPCR, as described in the SI. […] The cell viability and proliferation assays were carried out by using a resazurin-based fluorometric assay. The cells were exposed to the bombesin conjugates 20, 21, and 22 for initial 6 h and 48 h, and regardless of the initial incubation time, the cells were then allowed to grow until 72 h in sum were finalized, after which the cell viability was determined (see the SI).
(§3) FIGURE 2 (A) Relative human GRPR (mRNA) expression levels in the cell lines used for the flow cytometry and cell viability studies, as detected by using RT-qPCR (n = 3). Data were analyzed by conducting the ΔΔCt methodology using GAPDH as a reference gene and normalized to the GRPR expression level of non-cancerous MCF-10A breast cells as a “healthy” cell reference (set to 1.0). Statistical significance was tested by using an unpaired t-test (*p < 0.05). (B–D) Cell viability of human cancer (T-47D, PC-3, MDA-MB-231, and HCT-116) and non-cancer (MCF-10A) cell lines after 6 h initial treatment with the bombesin-tubugi conjugates 20 (normal disulfide), 21 (hindered disulfide), and 22 (hindered disulfide and lipidated), medium exchange and subsequent cell cultivation until finalization of 72 h, and subsequent measurement by using fluorometric resazurin assay read-out. For control and data normalization, cells were routinely treated in parallel with 0.5% (v/v) DMSO (negative control), and as a positive cytotoxicity control with 100 µM digitonin (for data normalization set to 0% cell viability), both in standard growth medium. Each data point was determined with 3-4 biological replicates, each with technical triplicates. The indicated concentrations are IC50 values as calculated based on the non-linear regression dose-response curves as drawn by using GraphPad Prism 8 software. Error bars indicate the 95% confidence interval. TEXT PRINTED IN THE PICTURE: (B) 20: T-47D (HR+ breast cancer) 594.2 nM (95% CI: 475.2 - n.d. nM); PC-3 (prostate cancer) 695.3 nM (95% CI: 595.6 - n.d. nM); MDA-MB-231 (TNBC) 626.8 nM (95% CI: 430.4 - n.d. nM); HCT-116 (colon cancer) 1,315 nM (95% CI: n.d. - 6,114 nM); MCF-10A (healthy breast) ~ 3,200 nM (95% CI: n.d.) | (C) 21: T-47D (HR+ breast cancer) 740.9 nM (95% CI: 598.2 - 950.1 nM); PC-3 (prostate cancer) 716.4 nM (95% CI: 529.4 - 997.2 nM); MDA-MB-231 (TNBC) 357.0 nM (95% CI: n.d. - 606.4 nM); HCT-116 (colon cancer) ~ 2,000 nM (95% CI: n.d.); MCF-10A (healthy breast) ~ 4,000 nM (95% CI: n.d.) | (D) 22: T-47D (HR+ breast cancer) 70.9 nM (95% CI: 39.3 - 122.4 nM); PC-3 (prostate cancer) 110.7 nM (95% CI: 66.4 - 116.8 nM); MDA-MB-231 (TNBC) 87.8 nM (95% CI: 83.3 - 148.4 nM)

The subject of series [2] is MCF-10A (non-cancer, healthy breast epithelium) cells. Briefly: Resazurin cell viability assay, MCF-10A. It is filed as cell-based, human. The note with it: for fold higher IC50 in GRPR-lowest expressing healthy MCF-10A than in higher GRPR-expressing cancer cells: compared with T-47D (20) or T-47D and PC-3 (21); for IC50: MCF-10A. Here is the method: as §2, §3
The test system of series [3] is PC-3 (prostate cancer) cells. In kind it is cell-based, human. The note with it: 6 h. The protocol: as §1, §2
FIGURE 2 (A) Relative human GRPR (mRNA) expression levels in the cell lines used for the flow cytometry and cell viability studies, as detected by using RT-qPCR (n = 3). Data were analyzed by conducting the ΔΔCt methodology using GAPDH as a reference gene and normalized to the GRPR expression level of non-cancerous MCF-10A breast cells as a “healthy” cell reference (set to 1.0). […] (B–D) Cell viability of human cancer (T-47D, PC-3, MDA-MB-231, and HCT-116) and non-cancer (MCF-10A) cell lines after 6 h initial treatment with the bombesin-tubugi conjugates 20 (normal disulfide), 21 (hindered disulfide), and 22 (hindered disulfide and lipidated), medium exchange and subsequent cell cultivation until finalization of 72 h, and subsequent measurement by using fluorometric resazurin assay read-out. […] Each data point was determined with 3-4 biological replicates, each with technical triplicates. […]

The test system of series [4] is MDA-MB-231 (TNBC) cells. In kind it is cell-based, human. The note with it: 6 h. The protocol:
as §2
(§4) FIGURE 2 (A) Relative human GRPR (mRNA) expression levels in the cell lines used for the flow cytometry and cell viability studies, as detected by using RT-qPCR (n = 3). Data were analyzed by conducting the ΔΔCt methodology using GAPDH as a reference gene and normalized to the GRPR expression level of non-cancerous MCF-10A breast cells as a “healthy” cell reference (set to 1.0). Statistical significance was tested by using an unpaired t-test (*p < 0.05). (B–D) Cell viability of human cancer (T-47D, PC-3, MDA-MB-231, and HCT-116) and non-cancer (MCF-10A) cell lines after 6 h initial treatment with the bombesin-tubugi conjugates 20 (normal disulfide), 21 (hindered disulfide), and 22 (hindered disulfide and lipidated), medium exchange and subsequent cell cultivation until finalization of 72 h, and subsequent measurement by using fluorometric resazurin assay read-out. For control and data normalization, cells were routinely treated in parallel with 0.5% (v/v) DMSO (negative control), and as a positive cytotoxicity control with 100 µM digitonin (for data normalization set to 0% cell viability), both in standard growth medium. Each data point was determined with 3-4 biological replicates, each with technical triplicates. The indicated concentrations are IC50 values as calculated based on the non-linear regression dose-response curves as drawn by using GraphPad Prism 8 software. Error bars indicate the 95% confidence interval. TEXT PRINTED IN THE PICTURE: (B) 20: T-47D (HR+ breast cancer) 594.2 nM (95% CI: 475.2 - n.d. nM); PC-3 (prostate cancer) 695.3 nM (95% CI: 595.6 - n.d. nM); MDA-MB-231 (TNBC) 626.8 nM (95% CI: 430.4 - n.d. nM); HCT-116 (colon cancer) 1,315 nM (95% CI: n.d. - 6,114 nM); MCF-10A (healthy breast) ~ 3,200 nM (95% CI: n.d.) | (C) 21: T-47D (HR+ breast cancer) 740.9 nM (95% CI: 598.2 - 950.1 nM); PC-3 (prostate cancer) 716.4 nM (95% CI: 529.4 - 997.2 nM); MDA-MB-231 (TNBC) 357.0 nM (95% CI: n.d. - 606.4 nM); HCT-116 (colon cancer) ~ 2,000 nM (95% CI: n.d.); MCF-10A (healthy breast) ~ 4,000 nM (95% CI: n.d.) | (D) 22: T-47D (HR+ breast cancer) 70.9 nM (95% CI: 39.3 - 122.4 nM); PC-3 (prostate cancer) 110.7 nM (95% CI: 66.4 - 116.8 nM); MDA-MB-231 (TNBC) 87.8 nM (95% CI: 83.3 - 148.4 nM) […]
(§5) Figure S50. Cell viability of human cancer (T-47D, PC-3, MDA-MB-231) and non-cancer (184B5) cell lines after 6 h initial treatment with the bombesin-tubugi conjugate 22 and its non-conjugated tubugi payload 10b, medium exchange and subsequent cell cultivation until finalization of 72 h, and subsequent measurement by using fluorometric resazurin assay read-out. Each data point was determined in at least 3-4 biological replicates each with technical triplicates. The indicated concentrations are IC50 values as calculated based on the non-linear regression dose-response curves as drawn by using GraphPad Prism 8 software. Error bars indicate the 95% confidence interval.
(§6) (1 picture or pasted object on this page, not shown here)

The nature of series [5]: Resazurin cell viability assay, the three GRPR-overexpressing cancer cell lines taken together. In kind it is cell-based, human. To be noted: 6 h initial treatment; read-out: selectivity: fold higher cytotoxicity for GRPR-overexpressing cells than for healthy 184B5 cells. Background: Alamar Blue is a resazurin reagent that responds to reducing activity.
The test system of series [6] is T-47D, PC-3 and MDA-MB-231 cells. The description is as above. In kind it is cell-based, human. To be noted: 6 h initial treatment.
In series [7] the test system is 184B5 (healthy breast) cells. To be noted: 6 h.
Series [8] concerns T-47D (HR+ breast cancer) cells. It is filed as cell-based, human. The note with it: 6 h. Here is the method: as §2, §4, §5, §6
The mark [9] stands for this setting: 6 h initial treatment, medium exchange, cultivation until 72 h, fluorometric resazurin read-out, 3-4 biological replicates, technical triplicates, read-out: IC50.
Setting [10] is: 6 h initial treatment, read-out: IC50.

Read-outs that look alike come from different tables or passages of the source. Peptide text beside a SMILES is read from it. * marks the point of attachment. X1 = CCCO[C@H](C[C@H](C(C)C)N(CC(=O)NCCC(C)(C)SSCCC(=O)*)C(=O)[C@@H](NC(=O)[C@H]1CCCCN1C)[C@@H](C)CC)c1nc(C(=O)N[C@@H](Cc2ccccc2)C[C@H](C)C(=O)O)cs1; X2 = CCCO[C@H](C[C@H](C(C)C)N(CC(=O)NCCSSCCC(=O)*)C(=O)[C@@H](NC(=O)[C@H]1CCCCN1C)[C@@H](C)CC)c1nc(C(=O)N[C@@H](Cc2ccccc2)C[C@H](C)C(=O)O)cs1

Broadly, the IC50 is the midpoint of a concentration-inhibition curve. As to `CCCO[C@H](C[C@H](C(C)C)N(CC(=O)NCCSSCCC(=O)NCCCC[C@H](N)C(=O)N[C@@H](CC(N)=O)C(=O)N[C@@H](CCC(N)=O)C(=O)N[C@@H](Cc1c[nH]c2ccccc12)C(=O)N[C@@H](C)C(=O)N[C@H](C(=O)NCC(=O)N[C@@H](Cc1c[nH]cn1)C(=O)N[C@@H](CC(C)C)C(=O)N[C@@H](CCSC)C(N)=O)C(C)C)C(=O)[C@@H](NC(=O)[C@H]1CCCCN1C)[C@@H](C)CC)c1nc(C(=O)N[C@@H](Cc2ccccc2)C[C@H](C)C(=O)O)cs1` [compound 20] (H-K(X2)NQWAVGHLM-NH2), the “fold higher IC50 in GRPR-lower expressing HCT-116 than in higher GRPR-expressing cancer cells” value in series [1] (6 h initial treatment) was “approximately 2 fold”. In addition, the IC50 in series [1] (setting [9]) is 1.31 µM; in series [1] (setting [10]), roughly 1.3 µM; in series [1] (48 h initial treatment) it was “nanomolar range”; in series [2] (setting [10]) it was roughly 3.2 µM; in series [2] (48 h initial treatment), “nanomolar range”; in series [3] it was 0.695 µM. Moreover, the IC50 in series [4] stood at 0.627 µM. In addition, the “fold higher IC50 in GRPR-lowest expressing healthy MCF-10A than in higher GRPR-expressing cancer cells” value in series [2] (6 h initial treatment) is recorded as roughly 5.5 fold.
In the case of `CCCCCCCCCCCCCCNC(=O)CN(CCCC[C@H](N)C(=O)N[C@@H](CC(N)=O)C(=O)N[C@@H](CCC(N)=O)C(=O)N[C@@H](Cc1c[nH]c2ccccc12)C(=O)N[C@@H](C)C(=O)N[C@H](C(=O)NCC(=O)N[C@@H](Cc1c[nH]cn1)C(=O)N[C@@H](CC(C)C)C(=O)N[C@@H](CCSC)C(N)=O)C(C)C)C(=O)CCSSC(C)(C)CCNC(=O)CN(C(=O)[C@@H](NC(=O)[C@H]1CCCCN1C)[C@@H](C)CC)[C@H](C[C@@H](OCCC)c1nc(C(=O)N[C@@H](Cc2ccccc2)C[C@H](C)C(=O)O)cs1)C(C)C` [compound 22], the selectivity ratio in series [5] was 3.5 to 5.5. Besides, the IC50 in series [6] (T-47D, PC-3, MDA-MB-231, read-out: IC50 (range over cell lines)) was 0.07 to 0.11 µM; in series [3], 0.111 µM; in series [7], 0.392 µM; in series [4], 0.0878 µM; in series [8], 0.0709 µM. For the same compound, the “fold more potent than the non-lipidated conjugates 20 and 21” value in series [6] (three cancer cells overexpressing the GRPR) is 4- to 10 fold.
For `CCCO[C@H](C[C@H](C(C)C)N(CC(=O)NCCC(C)(C)SSCCC(=O)NCCCC[C@H](N)C(=O)N[C@@H](CC(N)=O)C(=O)N[C@@H](CCC(N)=O)C(=O)N[C@@H](Cc1c[nH]c2ccccc12)C(=O)N[C@@H](C)C(=O)N[C@H](C(=O)NCC(=O)N[C@@H](Cc1c[nH]cn1)C(=O)N[C@@H](CC(C)C)C(=O)N[C@@H](CCSC)C(N)=O)C(C)C)C(=O)[C@@H](NC(=O)[C@H]1CCCCN1C)[C@@H](C)CC)c1nc(C(=O)N[C@@H](Cc2ccccc2)C[C@H](C)C(=O)O)cs1` [compound 21] (H-K(X1)NQWAVGHLM-NH2), in series [1] (6 h initial treatment), the “fold higher IC50 in GRPR-lower expressing HCT-116 than in higher GRPR-expressing cancer cells” value was “approximately 2.5 fold”. For the same compound, the IC50 was roughly 2 µM in series [1] (setting [9]); “nanomolar range” in series [1] (48 h initial treatment); roughly 4 µM in series [2] (setting [9]); “nanomolar range” in series [2] (48 h initial treatment); 0.716 µM in series [3]; 0.357 µM in series [4]. Further, the IC50 in series [8] was 0.741 µM. Moreover, in series [2] (6 h initial treatment), the “fold higher IC50 in GRPR-lowest expressing healthy MCF-10A than in higher GRPR-expressing cancer cells” value is roughly 5.5 fold.
